# Tests used:
# [1] = target: T1, M-phase inducer phosphatase 1 (Homo sapiens, UniProt P30304); assay: Inhibition of Cdc25A
# T1 sequence (P30304 whole entry): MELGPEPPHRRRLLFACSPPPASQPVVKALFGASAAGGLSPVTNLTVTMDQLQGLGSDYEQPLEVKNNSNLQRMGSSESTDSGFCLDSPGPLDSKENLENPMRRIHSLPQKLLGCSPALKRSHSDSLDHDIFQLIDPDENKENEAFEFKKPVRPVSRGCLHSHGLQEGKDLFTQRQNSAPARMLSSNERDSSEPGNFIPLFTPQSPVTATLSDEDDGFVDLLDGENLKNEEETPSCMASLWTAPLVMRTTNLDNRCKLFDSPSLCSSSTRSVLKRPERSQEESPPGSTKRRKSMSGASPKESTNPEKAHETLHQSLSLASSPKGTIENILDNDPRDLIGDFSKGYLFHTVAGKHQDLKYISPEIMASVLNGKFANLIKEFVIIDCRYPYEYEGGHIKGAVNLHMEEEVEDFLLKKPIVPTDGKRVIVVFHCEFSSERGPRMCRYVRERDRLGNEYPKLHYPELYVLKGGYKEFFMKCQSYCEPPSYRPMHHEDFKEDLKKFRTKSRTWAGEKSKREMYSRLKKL
# [2] = target: T2, M-phase inducer phosphatase 2 (Homo sapiens, UniProt P30305); assay: Inhibition of GST-fused Cdc25B
# T2 sequence (P30305 whole entry): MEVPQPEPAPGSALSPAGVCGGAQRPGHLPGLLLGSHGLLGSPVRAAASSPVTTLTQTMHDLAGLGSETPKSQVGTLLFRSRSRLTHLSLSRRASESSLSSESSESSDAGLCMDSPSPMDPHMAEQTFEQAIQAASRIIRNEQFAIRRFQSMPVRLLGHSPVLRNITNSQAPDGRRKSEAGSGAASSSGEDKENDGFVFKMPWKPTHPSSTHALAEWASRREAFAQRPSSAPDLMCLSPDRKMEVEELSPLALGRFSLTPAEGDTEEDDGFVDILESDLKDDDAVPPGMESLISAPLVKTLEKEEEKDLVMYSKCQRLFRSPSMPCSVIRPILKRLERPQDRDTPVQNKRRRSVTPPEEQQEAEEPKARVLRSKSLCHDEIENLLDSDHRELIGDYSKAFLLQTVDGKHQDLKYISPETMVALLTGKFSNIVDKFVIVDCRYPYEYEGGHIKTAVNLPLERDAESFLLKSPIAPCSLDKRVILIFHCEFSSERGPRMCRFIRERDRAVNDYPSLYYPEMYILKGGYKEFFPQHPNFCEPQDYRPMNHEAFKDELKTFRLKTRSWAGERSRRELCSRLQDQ
# [3] = target: T3, Tyrosine-protein phosphatase 1 (Saccharomyces cerevisiae S288c, UniProt P25044); assay: Inhibition of YPTP1
# T3 sequence (P25044 whole entry): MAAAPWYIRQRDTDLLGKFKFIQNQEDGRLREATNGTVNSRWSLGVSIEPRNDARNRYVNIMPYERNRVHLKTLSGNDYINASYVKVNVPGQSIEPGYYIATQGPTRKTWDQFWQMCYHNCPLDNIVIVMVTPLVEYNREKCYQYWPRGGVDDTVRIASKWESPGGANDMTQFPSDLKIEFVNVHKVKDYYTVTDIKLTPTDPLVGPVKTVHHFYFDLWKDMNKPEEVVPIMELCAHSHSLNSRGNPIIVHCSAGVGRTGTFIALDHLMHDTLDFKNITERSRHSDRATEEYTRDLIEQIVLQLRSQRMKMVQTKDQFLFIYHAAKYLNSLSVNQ
# [4] = target: T4, Tyrosine-protein phosphatase non-receptor type 1 (Homo sapiens, UniProt P18031); assay: Inhibition of PTP1B
# T4 sequence (P18031 whole entry): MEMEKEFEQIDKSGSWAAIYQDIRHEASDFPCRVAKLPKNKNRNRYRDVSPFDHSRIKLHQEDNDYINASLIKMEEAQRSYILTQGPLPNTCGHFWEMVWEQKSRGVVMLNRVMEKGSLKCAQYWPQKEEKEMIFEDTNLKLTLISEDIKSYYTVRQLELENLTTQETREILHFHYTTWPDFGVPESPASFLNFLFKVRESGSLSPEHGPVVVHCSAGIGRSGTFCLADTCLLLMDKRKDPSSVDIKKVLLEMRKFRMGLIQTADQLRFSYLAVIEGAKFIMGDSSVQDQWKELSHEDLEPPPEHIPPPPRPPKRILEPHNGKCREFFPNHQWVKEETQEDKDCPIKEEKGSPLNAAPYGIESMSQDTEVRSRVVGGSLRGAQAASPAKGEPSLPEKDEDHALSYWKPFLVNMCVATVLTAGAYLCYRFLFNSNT
# [5] = Inhibition of YOP; design: species or system Yersinia
SMILES,IC50 [1],IC50 [2],IC50 [3],IC50 [4],IC50 [5]
Nc1cccc(Nc2nc3ccccc3nc2NS(=O)(=O)c2ccc(Cl)cc2)c1,2.3 µM,11.1 µM,,,
N#Cc1c(NS(=O)(=O)c2ccccc2)n(Cc2ccccc2)c2nc3ccccc3nc12,2.9 µM,0.2 µM,> 100 µM,> 100 µM,> 100 µM
N#Cc1c(N)n(Cc2ccc3c(c2)OCO3)c2nc3ccccc3nc12,5.5 µM,9.1 µM,,,
O=S(=O)(Nc1cc2nc3ccccc3nc2n1Cc1ccccc1)c1ccccc1,2.1 µM,0.21 µM,> 100 µM,> 100 µM,> 100 µM
O=C(Nc1ccc(Cl)c(Cl)c1)Nc1ncc2c(n1)CC(c1ccco1)CC2=O (configuration not stated),17.8 µM,13.7 µM,,,
O=C1C(Cl)=C(NCCc2ccc(F)cc2)C(=O)c2ccccc21,3.9 µM,9.5 µM,,,
O=C(O)c1ccc2c(c1)C(=O)/C(=C/c1ccccc1)C2=O,13.3 µM,8.6 µM,,,
O=C1C(Cl)=C(NC(Cc2ccccc2)C(=O)O)C(=O)c2ccccc21 (configuration not stated),3.5 µM,3.8 µM,,,
